Earlier results, collected in patent US10716758B2, “Liposomal statin formulation” (Southwest Research Institute, priority 2018, dated 2020).

Experiments:
[1] = tested on: scar, rabbit ear model; details: relatively low doses (40 μM)
[2] = 20° C. to 25° C.

solubility in water (in words) [2]	SMILES	scar elevation index vs control [1]
	CC[C@H](C)C(=O)O[C@H]1C[C@@H](C)C=C2C=C[C@H](C)[C@H](CC[C@@H]3C[C@@H](O)CC(=O)O3)[C@H]21 [lovastatin]	reduction in the scar elevation index
soluble in water	CC[C@H](C)C(=O)O[C@H]1C[C@H](O)C=C2C=C[C@H](C)[C@H](CC[C@@H](O)C[C@@H](O)CC(=O)O)[C@H]21 [pravastatin]	
